Consider 3 compounds from PMC6520522, “In vitro and in vivo Metabolism of a Potent Inhibitor of Soluble Epoxide Hydrolase, 1-(1-Propionylpiperidin-4-yl)-3-(4-(trifluoromethoxy)phenyl)urea” (Frontiers in Pharmacology, 2019).

Series [1] can be described thus: Feces levels of TPPU and metabolites after single oral dose in rats. Type of series: in vivo. As to conditions: rat, single oral dose 10 mg/kg TPPU; for concentration at 8 h / concentration at 12 h / concentration at 24 h / concentration at 48 h / concentration at 72 h / Cmax: male, Sprague Dawley, feces; for concentration at 8 h: 8h post dose; for concentration at 8 h / concentration at 12 h / concentration at 24 h / concentration at 48 h / concentration at 72 h: n = 3; for concentration at 12 h: 12h post dose; for concentration at 24 h: 24h post dose; for concentration at 48 h: 48h post dose; for concentration at 72 h: 72h post dose.

In a further series the target is T1, recombinant human sEH (Homo sapiens, UniProt P34913).
T1 sequence (P34913 1-555): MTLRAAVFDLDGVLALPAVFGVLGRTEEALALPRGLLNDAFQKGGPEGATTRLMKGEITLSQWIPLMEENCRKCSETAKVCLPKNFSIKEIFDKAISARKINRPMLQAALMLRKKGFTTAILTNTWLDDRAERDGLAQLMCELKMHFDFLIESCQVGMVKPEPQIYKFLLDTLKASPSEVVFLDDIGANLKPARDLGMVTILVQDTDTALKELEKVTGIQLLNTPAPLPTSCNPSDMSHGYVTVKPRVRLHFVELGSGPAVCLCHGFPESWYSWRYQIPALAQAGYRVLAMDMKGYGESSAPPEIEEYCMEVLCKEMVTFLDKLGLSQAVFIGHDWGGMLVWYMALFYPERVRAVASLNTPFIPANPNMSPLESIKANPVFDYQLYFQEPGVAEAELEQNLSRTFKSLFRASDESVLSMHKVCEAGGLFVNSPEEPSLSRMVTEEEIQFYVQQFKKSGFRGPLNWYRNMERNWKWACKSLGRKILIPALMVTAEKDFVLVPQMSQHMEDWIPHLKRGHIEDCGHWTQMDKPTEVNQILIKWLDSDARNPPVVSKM
Briefly: sEH inhibition potency, CMNPC fluorescent assay. Type of series: biochemical. As to conditions: for IC50: CMNPC fluorescent assay, recombinant human sEH 1 nM, 30°C, average of three replicates, read-out: HsEH IC50. On the procedure:
Briefly, recombinant human sEH [1 nM in sodium phosphate buffer (0.1 M, pH = 7.4, 0.1 mg/mL BSA)] was incubated with each analyte (0.1 < [I]final < 10,000 nM) at 30°C for 5 min. Then, the reaction was started with the addition to CMNPC ([S]final = 5 μM). The reaction was monitored kinetically for 10 min at 30°C. The formation of the fluorescent product 6-methoxynaphthaldehyde (λexcitation = 330 nm, λemission = 465 nm, 30°C) was measured every 30 s. IC50 values were determined by regression of the remaining activity in function of the inhibitor concentrations. Assays were run in triplicate and IC50 values are the averages of three replicates.

Series [2] can be described thus: In vitro metabolism of TPPU in liver S9 fractions. Type of series: in vitro ADME, human, monkey, dog, rat, mouse. As to conditions: for formation of metabolite in liver S9 fractions: with NADPH regeneration system, rat, mouse, dog, monkey, human, 2 h. Here is the method:
The in vitro study of TPPU metabolism was conducted following previous methods as described (Watanabe and Hammock, [2001]). Briefly, 1 μL of TPPU (1 mM in DMSO; [TPPU]final = 10 μM) was mixed with 94 μL of diluted liver S9 fractions (final, 0.05 mg protein/mL) from human, monkey, dog, rat, and mouse and incubations were conducted in a 10 mL glass vial. After 5 min preincubation at 37°C, the reaction was initiated by adding 5 μL of NADPH regeneration solution. The NADPH regeneration solution was prepared by mixing 50 μL of NADP^+ (100 mM), 50 μL of G6P (500 mM), 50 μL of G6PDH (100 Unit/mL), and 100 μL of sodium phosphate buffer. Incubation without NADPH regeneration solution was used as control. Reactions were kept for 2 h and terminated by addition of 100 μL of ice-cold methanol containing CUDA (200 nM) as an internal standard. The mixture was followed by vigorous mixing for 2 min and centrifuging at 10,000^*g for 10 min. Each supernatant was transferred to an HPLC vial and kept under 4°C until LC-MS analysis.
(§1) LC-MS/MS analysis was conducted on an Agilent SL 1200 series LC system (Agilent, Palo Alto, CA) connected to a 4,000 Qtrap mass spectrometer (Applied Biosystems Instrument Corporation, Foster City, CA) with Turbo V ion source. Liquid chromatography was performed on a Kinetex® C18 column (100 × 2.1 mm, 1.7 μm). Three μL solution was injected onto the column held at 45°C for analysis. Mobile phase A and B were water with 0.1% acetic acid and acetonitrile with 0.1% acetic acid, respectively. The LC flow rate was 300 μL/min.

Series [3] can be described thus: Urine levels of TPPU and metabolites after single oral dose in rats. Type of series: in vivo. Conditions: rat, single oral dose 10 mg/kg TPPU; for Cmax: male, Sprague Dawley, urine. On the procedure:
(§2) Healthy male rats (Sprague Dawley, n = 4) were housed in temperature-controlled housing with ad libitum standard chow and drinking water. Each rat received TPPU (dissolved in 0.5 mL PEG400) at a dose of 10 mg/kg by oral gavage in order to generate significant amounts of metabolites while corresponding to previous efficacious concentration doses. Both blood and urine samples were collected. Blood samples (10 μL) at time points of 0 (before dosing), 0.25, 0.5, 1, 2, 4, 8, 12, 24, 48, and 72 h post dose were collected from the tail vein. Collected blood samples were transferred to Eppendorf tubes containing 90 μL of EDTA solution (0.1% EDTA and 0.1% acetic acid) and were immediately shaken to avoid blood coagulation. The urine and feces samples were passively collected at the time points of 8, 12, 24, 48, and 72 h post dose. TAPU (10 μL) of 1 μM in methanol was added in each blood and urine sample as an internal standard solution. The blood sample extraction was performed with 200 μL ethyl acetate by liquid-liquid extraction. The representative urine samples were subjected to protein precipitation prior to analysis of TPPU and Phase I metabolites. Briefly, urine (10 μL) was treated with 50 μL acetonitrile. After vortex mixing and centrifugation, the supernatant was collected. The feces samples (50–100 mg) were extracted using 600 μL extraction solution (MeOH: EA = 1:1). The mixtures were kept at −20°C overnight to give efficient extraction of TPPU and its metabolites. On day 2, after vortex mixing and centrifugation, the supernatant was collected. The remaining residue was extracted an additional time with 300 μL extraction solution, and the supernatant was combined after centrifugation. The collected supernatants were dried using a speed vacuum concentrator and reconstituted in 50 μL of 100 nM CUDA solution in methanol. In addition, urine (10 μL) was diluted with water (50 μL) and then subjected to analysis of glucuronide or sulfate conjugates.
as §1
(§3) The mass spectrometer was operated in both negative and positive modes. Three different scan types were employed to perform mass spectrometry analysis, including product ion scan, precursor ion scan (optimized parameters in Table S4) and MRM scan (optimized parameters in Table S5).

Series [4] can be described thus: Blood pharmacokinetics of TPPU and its metabolites after single oral dose in rats. Type of series: in vivo. As to conditions: for half-life: rat, po, n = 4, read-out: T1/2 (half-life) (converted); for share of the total TPPU-related exposure in blood: single oral dose of TPPU, over 72 h. On the procedure:
as §2, §1, §3

Series [5] can be described thus: Urine levels of TPPU and metabolites after single oral dose in rats. In kind it is in vivo. As to conditions: male, Sprague Dawley, rat, single oral dose 10 mg/kg TPPU, n = 3; for concentration at 8 h: 8h post dose; for concentration at 12 h: 12h post dose; for concentration at 24 h: 24h post dose; for concentration at 48 h: 48h post dose; for concentration at 72 h: 72h post dose.

[6] abbreviates: male, Sprague Dawley, whole blood, 10 mg/kg, oral gavage 10 mg/kg.

Bounds are passed on as bounds.

In general, IC50 refers to the concentration that gives 50% inhibition. With `CC(O)C(=O)N1CCC(NC(=O)Nc2ccc(OC(F)(F)F)cc2)CC1` (stereo not shown) [Compound M1, 1-(1-(2-hydroxypropanoyl)piperidin-4-yl)-3-(4-(trifluoromethoxy)phenyl)urea], in series [1], the concentration at 8 h was determined as 3.7 ng/mL, the concentration at 12 h is 5.7 ng/mL, the concentration at 24 h worked out at 1.1 ng/mL and the concentration at 48 h turned out to be 8.8 ng/mL. The concentration at 72 h in series [1] came out at 4.4 ng/mL. For the same compound, the IC50 at recombinant human sEH came to 3 ± 0.5 nM. The “fold more potent than M2 toward human sEH” value at recombinant human sEH (ratio of IC50 values, versus M2) was ~ 5 fold. Besides, in series [2], the “formation of metabolite in liver S9 fractions” value is recorded as “found in all species tested”. The “formation of metabolite in liver S9 fractions in the absence of a NADPH generation system” value in series [2] (without NADPH, liver S9 fractions (Figure S1: human)) is listed as “failed to be detected”. Moreover, in series [3], the Cmax is 12000 ng/mL and the “time of Cmax in urine” value is 12 h. For the same compound, in series [4] (setting [6]), the half-life was approximately 20 h. The “T1/2 (half-life)” value in series [4] (rat blood, oral gavage 10 mg/kg, n = 4, 10 mg/kg) is reported as 20 ± 3 h. For the same compound, the “share of the total TPPU-related exposure in blood” value in series [4] (rat blood) was ~ 9.6%. Moreover, in series [5], the concentration at 8 h came out at 8 ng/mL, the concentration at 12 h is 1.2 ng/mL, the concentration at 24 h turned out to be 5.6 ng/mL and the concentration at 48 h is 3.6 ng/mL. Moreover, the concentration at 72 h in series [5] came to 2.1 ng/mL.

As to `CCC(=O)N1CCC(NC(=O)Nc2ccc(OC(F)(F)F)cc2)CC1` [TPPU, 1-(1-propionylpiperidin-4-yl)-3-(4-(trifluoromethoxy)phenyl)urea], in series [1], the concentration at 8 h is 1.8 ng/mL, the concentration at 12 h turned out to be 2.4 ng/mL, the concentration at 24 h was 1.9 ng/mL and the concentration at 48 h was found to be 7 ng/mL. For the same compound, in series [1], the concentration at 72 h is 1.5 ng/mL, the Cmax was 24000 ng/mL and the “time of Cmax in feces” value turned out to be 12 h. The “TPPU remaining after incubation with liver S9 fractions” value in series [2] (2 h of incubation, TPPU 10 μM, 0.05 mg protein/mL) is on record as “over 90%”. In series [3], the Cmax amounted to 5700 ng/mL and the “time of Cmax in urine” value is reported as 8 h. In series [4] (rat blood, oral 10 mg/kg TPPU), the “share of the TPPU nucleus in the blood” value was “over 90%”. In series [5], the concentration at 8 h stood at 5.7 ng/mL, the concentration at 12 h was 5.1 ng/mL, the concentration at 24 h was determined as 1.6 ng/mL and the concentration at 48 h came to 4.6 ng/mL. Further, the concentration at 72 h in series [5] was found to be 1.1 ng/mL.

Regarding `O=C(O)CC(=O)N1CCC(NC(=O)Nc2ccc(OC(F)(F)F)cc2)CC1` [Compound M4, 3-oxo-3-(4-(3-(4-(trifluoromethoxy)phenyl)ureido)piperidin-1-yl)propanoic acid], in series [1], the concentration at 8 h came to 3 ng/mL, the concentration at 12 h was found to be 1.2 ng/mL, the concentration at 24 h was found to be 2.2 ng/mL and the concentration at 48 h was 6.4 ng/mL. In series [1], the concentration at 72 h is 2.1 ng/mL, the Cmax was found to be 22000 ng/mL and the “time of Cmax in feces” value came out at 24 h. Further, on recombinant human sEH, the IC50 was determined as 158 ± 10 nM. For the same compound, in series [2], the “formation of metabolite in liver S9 fractions” value is reported as “not detected”. In series [4] (setting [6]), the half-life was 17 ± 4.7 h. The Cmax in series [4] (male, Sprague Dawley, whole blood, rat blood, oral gavage 10 mg/kg, n = 4, read-out: Cmax (maximum blood concentration)) was found to be 53 ± 28 nM. Moreover, the “share of the total TPPU-related exposure in blood” value in series [4] (rat blood) was less than 0.4%. Also, in series [5], the concentration at 8 h was 1 ng/mL, the concentration at 12 h came to 1.1 ng/mL, the concentration at 24 h stood at 2.4 ng/mL and the concentration at 48 h is 1.2 ng/mL. Further, the concentration at 72 h in series [5] turned out to be 1.7 ng/mL.
